Measurements published in US12404289B2 (Gilead Sciences, Inc., priority 2020, dated 2025).

System: Respiratory syncytial virus (RSV) strain A2
Assay: RSV antiviral assay (HEp-2, 96 well)
Assay type: cell-based
Settings: human respiratory syncytial virus, HEp-2, 96 h, read-out: EC50 RSV HEP2 96, HEp-2 cells, RSV A2, MOI=4, 4 days, 96 well; Table 3

SMILES	EC50
CCC(CC)COC(=O)[C@H](C)NP(=O)(OC[C@H]1O[C@@](C#N)(c2ccc3c(N)ncnn23)[C@H](OC(=O)C(C)C)[C@@H]1OC(=O)C(C)C)Oc1ccc(C[C@H](NC(=O)OCc2ccccc2)C(=O)OCCC(C)C)cc1 (stereo partly drawn) [Example 72, (2R,3R,4R,5R)-2-(4-aminopyrrolo[2,1-f][1,2,4]triazin-7-yl)-5-((((4-((S)-2-(((benzyloxy)carbonyl)amino)-3-(isopentyloxy)-3-oxopropyl)phenoxy)(((S)-1-(2-ethylbutoxy)-1-oxopropan-2-yl)amino)phosphoryl)oxy)methyl)-2-cyanotetrahydrofuran-3,4-diyl bis(2-methylpropanoate)]	556 nM
CCOC(=O)O[C@H]1[C@@H](OC(=O)OCC)[C@](C#N)(c2ccc3c(N)ncnn23)O[C@@H]1CO[P@@](=O)(N[C@@H](C)C(=O)OCC(CC)CC)Oc1ccccc1 [Example 127, 2-ethylbutyl ((S)-(((2R,3R,4R,5R)-5-(4-aminopyrrolo[2,1-f][1,2,4]triazin-7-yl)-5-cyano-3,4-bis((ethoxycarbonyl)oxy)tetrahydrofuran-2-yl)methoxy)(phenoxy)phosphoryl)-L-alaninate]	34.1 nM
COC(C)(C)COC(=O)[C@H](C)NP(=O)(OC[C@H]1O[C@@](C#N)(c2ccc3c(N)ncnn23)[C@H](O)[C@@H]1O)Oc1ccc(C(C)(C)C)cc1 (stereo partly drawn) [Example 111, 2-methoxy-2-methylpropyl ((((2R,3S,4R,5R)-5-(4-aminopyrrolo[2,1-f][1,2,4]triazin-7-yl)-5-cyano-3,4-dihydroxytetrahydrofuran-2-yl)methoxy)(4-(tert-butyl)phenoxy)phosphoryl)-L-alaninate]	846 nM
CCOCCOCCOC(=O)[C@H](C)NP(=O)(OC[C@H]1O[C@@](C#N)(c2ccc3c(N)ncnn23)[C@H](OC(=O)C(C)C)[C@@H]1OC(=O)C(C)C)Oc1ccc(C(C)(C)C)cc1 (stereo partly drawn) [Example 115, (2R,3R,4R,5R)-2-(4-aminopyrrolo[2,1-f][1,2,4]triazin-7-yl)-5-((((4-(tert-butyl)phenoxy)(((S)-1-(2-(2-ethoxyethoxy)ethoxy)-1-oxopropan-2-yl)amino)phosphoryl)oxy)methyl)-2-cyanotetrahydrofuran-3,4-diyl bis(2-methylpropanoate)]	62.6 nM
COC(C)(C)COC(=O)[C@H](C)N[P@](=O)(OC[C@H]1O[C@@](C#N)(c2ccc3c(N)ncnn23)[C@H](OC(=O)CC(C)C)[C@@H]1OC(=O)CC(C)C)Oc1ccccc1 [Example 168, (2R,3R,4R,5R)-2-(4-aminopyrrolo[2,1-f][1,2,4]triazin-7-yl)-2-cyano-5-((((S)—(((S)-1-(2-methoxy-2-methylpropoxy)-1-oxopropan-2-yl)amino)(phenoxy)phosphoryl)oxy)methyl)tetrahydrofuran-3,4-diyl bis(3-methylbutanoate)]	111 nM
CCC(C)(C)COC(=O)[C@H](C)NP(=O)(OC[C@H]1O[C@@](C#N)(c2ccc3c(N)ncnn23)[C@H](O)[C@@H]1O)Oc1ccccc1 (stereo partly drawn) [Intermediate D9, 2,2-dimethylbutyl ((((2R,3S,4R,5R)-5-(4-aminopyrrolo[2,1-f][1,2,4]triazin-7-yl)-5-cyano-3,4-dihydroxytetrahydrofuran-2-yl)methoxy)(phenoxy)phosphoryl)-L-alaninate]	65.4 nM
CCC(=O)O[C@H]1[C@@H](OC(=O)CC)[C@](C#N)(c2ccc3c(N)ncnn23)O[C@@H]1COP(=O)(N[C@@H](C)C(=O)OCC(CC)CC)Oc1ccc(C(C)(C)C)cc1 (stereo partly drawn) [Example 110, (2R,3R,4R,5R)-2-(4-aminopyrrolo[2,1-f][1,2,4]triazin-7-yl)-5-((((4-(tert-butyl)phenoxy)(((S)-1-(2-ethylbutoxy)-1-oxopropan-2-yl)amino)phosphoryl)oxy)methyl)-2-cyanotetrahydrofuran-3,4-diyl Dipropionate]	57.6 nM
CC(C)C(=O)O[C@H]1[C@@H](OC(=O)C(C)C)[C@](C#N)(c2ccc3c(N)ncnn23)O[C@@H]1COP(=O)(N[C@@H](C)C(=O)O[C@H]1CC[C@H](C(F)(F)F)CC1)Oc1ccc(C(C)(C)C)cc1 (single isomer, unassigned) [Example 85a]	62.7 nM
CCCCCCOC(=O)[C@H](C)NP(=O)(OC[C@H]1O[C@@](C#N)(c2ccc3c(N)ncnn23)[C@H](OC(=O)C(C)C)[C@@H]1OC(=O)C(C)C)Oc1ccc(C(C)(C)C)cc1 (stereo partly drawn) [Example 125, (2R,3R,4R,5R)-2-(4-aminopyrrolo[2,1-f][1,2,4]triazin-7-yl)-5-((((4-(tert-butyl)phenoxy)(((S)-1-(hexyloxy)-1-oxopropan-2-yl)amino)phosphoryl)oxy)methyl)-2-cyanotetrahydrofuran-3,4-diyl bis(2-methylpropanoate)]	21.1 nM
CCC(C)(C)CCOC(=O)[C@H](C)NP(=O)(OC[C@H]1O[C@@](C#N)(c2ccc3c(N)ncnn23)[C@H](OC(=O)C(C)C)[C@@H]1OC(=O)C(C)C)Oc1ccccc1 (stereo partly drawn) [Example 74, [(2R,3R,4R,5R)-5-(4-aminopyrrolo[2,1-f][1,2,4]triazin-7-yl)-5-cyano-2-[[[[(1S)-2-(3,3-dimethylpentoxy)-1-methyl-2-oxo-ethyl]amino]-phenoxy-phosphoryl]oxymethyl]-4-(2-methylpropanoyloxy)tetrahydrofuran-3-yl] 2-methylpropanoate]	131 nM
CC(C)C(=O)O[C@H]1[C@@H](OC(=O)C(C)C)[C@](C#N)(c2ccc3c(N)ncnn23)O[C@@H]1COP(=O)(N[C@@H](C)C(=O)OCCC(C)(C)C)Oc1ccc(C(C)(C)C)cc1 (stereo partly drawn) [Example 62, [(2R,3R,4R,5R)-5-(4-aminopyrrolo[2,1-f][1,2,4]triazin-7-yl)-2-[[(4-tert-butylphenoxy)-[[(1S)-2-(3,3-dimethylbutoxy)-1-methyl-2-oxo-ethyl]amino]phosphoryl]oxymethyl]-5-cyano-4-(2-methylpropanoyloxy)tetrahydrofuran-3-yl] 2-methylpropanoate]	70.6 nM
CCCCCCOC(=O)[C@H](C)NP(=O)(OC[C@H]1O[C@@](C#N)(c2ccc3c(N)ncnn23)[C@H](O)[C@@H]1O)Oc1ccc(C(C)(C)C)cc1 (stereo partly drawn) [Example 120, hexyl ((((2R,3S,4R,5R)-5-(4-aminopyrrolo[2,1-f][1,2,4]triazin-7-yl)-5-cyano-3,4-dihydroxytetrahydrofuran-2-yl)methoxy)(4-(tert-butyl)phenoxy)phosphoryl)-L-alaninate]	73.9 nM
C[C@H](NP(=O)(OC[C@H]1O[C@@](C#N)(c2ccc3c(N)ncnn23)[C@H](O)[C@@H]1O)Oc1ccc(C2CC2)cc1)C(=O)OC1CCC1 (stereo partly drawn) [Example 51a, cyclobutyl (2S)-2-[[[(2R,3S,4R,5R)-5-(4-aminopyrrolo[2,1-f][1,2,4]triazin-7-yl)-5-cyano-3,4-dihydroxy-tetrahydrofuran-2-yl]methoxy-(cyclopropylphenoxy)phosphoryl]amino]propanoate]	66.1 nM

Same assay, conditions: read-out: EC50 RSV HEP2 96; HEp-2 cells, RSV A2, MOI=4, 4 days, 96 well; Table 3

SMILES	EC50
CC(C)C(=O)O[C@H]1[C@@H](OC(=O)C(C)C)[C@](C#N)(c2ccc3c(N)ncnn23)O[C@@H]1COP(=O)(N[C@@H](C)C(=O)OC1CCCCCCC1)Oc1ccc(C(C)(C)C)cc1 (single isomer, unassigned) [Example 77b]	198 nM
CC(C)C(=O)O[C@H]1[C@@H](OC(=O)C(C)C)[C@](C#N)(c2ccc3c(N)ncnn23)O[C@@H]1COP(=O)(N[C@@H](C)C(=O)OC1CCC1)Oc1ccc(C2CC2)cc1 (stereo partly shown) [Example 52b]	25.4 nM
CCC(CC)COC(=O)[C@H](C)NP(=O)(OC[C@H]1O[C@@](C#N)(c2ccc3c(N)ncnn23)[C@H](O)[C@@H]1O)Oc1cccc(C(C)(C)C)c1 (stereo partly shown) [Example 68b]	34.4 nM
